Consider 17 compounds from patent US12371434B2, “MLL1 inhibitors and anti-cancer agents” (NOVARTIS AG, priority 2020, dated 2025).

Experiment [1] has as its target wild type MLL1 four-member complex (MLL1-4C) (Homo sapiens, UniProt Q03164). The experiment can be described thus: MLL1 LC-MS assay. The class given is biochemical. The following applies: 30 nM MLL1-4C, 2.5 μM SAM, 10 μM H3K4me0; SAH production by LC-MS/MS; read-out: MLL1 LCMS. How it is done: The compounds of the present disclosure were serially and separately diluted 3-fold in DMSO to obtain a total of eight or twelve concentrations. Then the test compounds at each concentration (120 nL of each) were transferred by Mosquito into white Proxiplate plus 384-well microplate (PerkinElmer). Solutions (6 μL) of 60 nM wild type MLL1 four-member complex (MLL1-4C) and 5 μM SAM in the reaction buffer (20 mM Tris-HCl, pH8.0, 0.01% Tween 20, 1 mM DTT, 10 mM MgCl2, 0.01% BSA) were added to the wells that were then incubated with the test compound for 20 min. A 6 μL solution of 20 μM of the peptide substrate H3K4me0 (histone H3[1-21]-Biotin) in the reaction buffer was added to initiate each reaction. The final components in the reaction solution include 30 nM MLL1-4C, 2.5 μM SAM, and 10 μM H3K4me0 with varying concentration of the compounds. A positive control consisted of 30 nM MLL1-4C, 2.5 μM SAM, and 10 μM substrate in the absence of the test compound, and a negative control consisted of 2.5 μM SAM, and 10 μM substrate only. Each reaction was incubated at rt for 120 min, then stopped by addition of 3 μL per of quench solution (2.5% TFA with 320 nM d4-SAH). The reaction mixture was centrifuged (Eppendorf centrifuge 5810, Rotor A-4-62) for 2 min at 2000 rmp. The SAH production from the enzymatic assays were monitored by LC-MS/MS on an API 4000 triple quadrupole mass spec with TurboIon Spray (Applied Biosystem) coupled with Prominenece UFLC(Shimazu). The level of SAH production were then normalized based on the values coming from the positive and negative controls to give percent enzyme activities. The data were then fit to a dose response equation using the program Helios (Novartis) to get the IC50 values of the test compounds.

In experiment [2] the target is wild type MLL1 five-member complex (MLL1-5C) (Homo sapiens, UniProt Q03164). The experiment in a line: MLL1 Flashplate assay. The class given is biochemical. The following applies: 2.5 nM MLL1-5C, 0.5 μM 3H-SAM, 1 μM H3K4me0; read-out: MLL1 flash plate. How it is done: MLL1 Flashplate Assay To assess the compound potency in MLL1 Flashplate assay, compounds were serially diluted 3-fold in DMSO to obtain a total of twelve concentrations. Then the test compounds at each concentration (250 nL of each) were transferred by Mosquito into Corning #3675 384-well plate. Solutions (15 μL) of 4.2 nM wild type MLL1 five-member complex (MLL1-5C) in the assay buffer (20 mM Tris-HCl, pH8.0, 0.01% Tween 20, 1 mM DTT, 0.01% BSA) were added to the wells. A 10 μL solution of 2.5 μM of the peptide substrate H3K4me0 (histone H3[1-21]-Biotin) and 1.25 μM ^3H-SAM in the reaction buffer was then added to initiate each reaction. The final components in the reaction solution include 2.5 nM MLL1-5C, 0.5 μM ^3H-SAM, and 1 μM H3K4me0 with varying concentration of the compounds. A positive control consisted of 2.5 nM MLL1-5C, 0.5 μM ^3H-SAM, and 1 μM substrate in the absence of the test compound, and a negative control consisted of 0.5 μM ^3H-SAM, and 1 μM substrate only. Each reaction was incubated at rt for 90 min, then stopped by addition of 5 μL per of quench solution (0.5 mM SAM in assay buffer). 25 μL of each reaction solution was transferred to FlashPlate streptavidin 384-well microplate (PerkinElmer). After at least 1 h incubation at rt, the wells were washed three times with 0.1% Tween-20 in dH2O using the BioTek plate washer. The plates were then read in MicroBeta (PerkinElmer). The radioactive readouts were then normalized based on the values coming from the positive and negative controls to give percent enzyme activities. The data were then fit to a dose response equation using the program Helios to get the IC50 values of the test compounds.

In another experiment the test system is H3K4me3 in MV4-11 cells. The experiment can be described thus: MV4-11 H3K4Me3 cellular ELISA assay. The class given is cell-based. The note with it: Homo sapiens, 48 hours, H3K4me3 signal normalized to total H3. How it is done:
MV4-11H3K4Me3 Cellular ELISA Assay
MV4-11 (ATCC® CRL-9591™) was cultured with RPMI1640 medium (Thermo Fisher Scientific, cat #11875) supplemented with 10% FBS (Thermo Fisher Scientific, cat #10099141) and 50 U/ml Penicillin-Streptomycin (Thermo Fisher Scientific, cat #10378016) in humidified incubator at 37° C., 5% CO2.
200 nL compounds dissolved in DMSO were serially diluted at 1:3 ratio for 12 points starting from 10 mM and dispensed into each wells of cell culture plates (PDL-coated ViewPlate-384 Black, FTC, PerkinElmer, #6007710). 3,750 MV4-11 cells in 40 μL culture medium were seeded into each well and treated with desired concentration for 48 hours. After treatment, wash cells with cold phosphate based buffer (PBS, pH 7.4) and aspirate the remaining PBS buffer. Crude histone lysate was extracted by 40 μL 0.5M HCl for 1 hour in 4° C. following neutralization by adding 32 μL neutralization buffer (0.5M Sodium phosphate dibasic, pH˜12.5, 1.25 mM Dithiothreitol, Promega #V3151, Protease Inhibitor Cocktail, Sigma #8340) for each well. 5 μL and 20 μL of histone lysate was loaded to ELISA plate (384 Well Plates, PE HB, White, 6005620) for detection of total H3 and H3K4me3, respectively. Shake the plates gently in 4° C. for overnight. After histone binding, plates were washed with 80 μL PBS/T (PBS with 0.05% Tween-20) and blocked with 50 μL 3% BSA diluted in PBS/T per well for 1 hour. Incubate wells with primary antibody for 1 hour at room temperature using anti-H3K4me3 (CST #9727) and anti-total H3 (CST #9715) diluted 1:2000 in 3% BSA. Plates were then washed with PBS/T for 3 times and incubated with horseradish peroxidase (HRP) conjugated secondary antibody (CST #7074, 1:5000) for 1 hour at room temperature. The abundance of H3K4me3 and total H3 were measured by ECL substrates chemiluminesce (Pierce, #34080) on a plate reader (PerkinElmer EnVison 2104 Mutilable Reader). Percentage inhibition was calculated against DMSO control after normalization of H3K4me3 signal to H3 signal for individual samples. The data were then fit to a dose response curve using GraphPad Prism for IC50 calculation.
For orientation: An ELISA detects its analyte on a solid surface through an enzyme-linked reagent.

In the case of `COC[C@H](N)CCOc1cc(Cl)cc(Br)c1Cn1cnc2c(N)ncnc21` [Example 2, (R)-9-(2-(3-amino-4-methoxybutoxy)-6-bromo-4-chlorobenzyl)-9H-purin-6-amine], the IC50 in experiment [1] and in experiment [2] was above 100 nM throughout.

For `COC[C@@H](N)CCOc1cc(Cl)cc(C)c1Cn1cnc2c(N)ncnc21` [Example 3, (S)-9-(2-(3-amino-4-methoxybutoxy)-4-chloro-6-methylbenzyl)-9H-purin-6-amine], the IC50 was above 100 nM in experiment [1] and above 3000 nM in the experiment on H3K4me3 in MV4-11 cells.

Consider `CCc1cc(Cl)cc(OCC[C@H](N)COC)c1Cn1cnc2c(N)ncnc21` [Example 4, (S)-9-(2-(3-amino-4-methoxybutoxy)-4-chloro-6-ethylbenzyl)-9H-purin-6-amine], for which the IC50 in experiment [1] is above 100 nM; in the experiment with H3K4me3 in MV4-11 cells it was above 3000 nM.

As to `COC[C@H](N)CCCOc1ccc(Cl)c(Cl)c1Cc1cnc2c(N)ncnn12` [Example 5, (R)-7-(6-((4-amino-5-methoxypentyl)oxy)-2,3-dichlorobenzyl)imidazo[2,1-f][1,2,4]triazin-4-amine], the IC50 in experiment [1] is above 100 nM; in the experiment on H3K4me3 in MV4-11 cells, above 3000 nM; in experiment [2], above 100 nM.

Turning to `COC[C@H](N)CCCOc1ccc(Cl)c(Cl)c1Cc1cnn2c(N)ncnc12` [Example 8, (R)-8-(6-((4-amino-5-methoxypentyl)oxy)-2,3-dichlorobenzyl)pyrazolo[1,5-a][1,3,5]triazin-4-amine], the IC50 in experiment [1] was above 100 nM; in the experiment with H3K4me3 in MV4-11 cells it was above 3000 nM; in experiment [2] it was above 100 nM.

Regarding `COC[C@H](N)CCCOc1cc(Cl)cc(Br)c1Cc1cnn2c(N)ncnc12` [Example 9, (R)-8-(2-((4-amino-5-methoxypentyl)oxy)-6-bromo-4-chlorobenzyl)pyrazolo[1,5-a][1,3,5] triazin-4-amine], the IC50 in experiment [1] was above 100 nM; in the experiment on H3K4me3 in MV4-11 cells, above 3000 nM.

As to `COC[C@H](N)CCCOc1cccc(Cl)c1Cc1cnn2c(N)ncnc12` [Example 11, (R)-8-(2-((4-amino-5-methoxypentyl)oxy)-6-chlorobenzyl)pyrazolo[1,5-a][1,3,5]triazin-4-amine], the IC50 is above 100 nM in experiment [1] and above 3000 nM with H3K4me3 in MV4-11 cells.

As for `CC(C)COC[C@H](N)CCCOc1ccc(Cl)c(Cl)c1Cc1cnn2c(N)ncnc12` [Example 15, (R)-8-(6-((4-amino-5-isobutoxypentyl)oxy)-2,3-dichlorobenzyl)pyrazolo[1,5-a][1,3,5]triazin-4-amine], the IC50 in experiment [1] and in experiment [2] was above 100 nM each time.

`CCOC[C@H](N)CCCOc1ccc(Cl)c(Cl)c1Cc1cnn2c(N)ncnc12` [Example 16, (R)-8-(6-((4-amino-5-ethoxypentyl)oxy)-2,3-dichlorobenzyl)pyrazolo[1,5-a][1,3,5]triazin-4-amine]: the IC50 was above 100 nM in experiment [1], above 3000 nM with H3K4me3 in MV4-11 cells and above 100 nM in experiment [2].

Take `COC[C@@H](N)CCOc1ccc(Cl)c(Cl)c1Cc1cnn2c(N)ncnc12` [Example 17, (S)-8-(6-(3-amino-4-methoxybutoxy)-2,3-dichlorobenzyl)pyrazolo[1,5-a][1,3,5]triazin-4-amine]: the IC50 in experiment [1] and in experiment [2] was above 100 nM throughout.

Regarding `COC[C@H](N)CCCOc1ccc(Cl)c(Cl)c1Cn1cnc2c(N)ncc(Cl)c21` [Example 18, (R)-1-(6-((4-amino-5-methoxypentyl)oxy)-2,3-dichlorobenzyl)-7-chloro-1H-imidazo[4,5-c]pyridin-4-amine], the figures for the IC50 (in experiment [1]; with H3K4me3 in MV4-11 cells) were 50 to 100 nM and above 3000 nM, respectively.

As to `COC[C@H](N)CCCOc1cc2ccccc2cc1Cn1cnc2c(N)ncnc21` [Example 21, (R)-9-((3-((4-amino-5-methoxypentyl)oxy)naphthalen-2-yl)methyl)-9H-purin-6-amine], the IC50 in experiment [1] is 50 to 100 nM; with H3K4me3 in MV4-11 cells it was above 3000 nM; in experiment [2], above 100 nM.

Take `CN[C@H](CCCOc1cc(Cl)cc(Br)c1Cn1cnc2c(N)ncnc21)COC` [Example 22, (R)-9-(2-bromo-4-chloro-6-((5-methoxy-4-(methylamino)pentyl)oxy)benzyl)-9H-purin-6-amine]: the IC50 in experiment [1] and in experiment [2] was above 100 nM each time.

As to `Nc1ncnn2c(Cc3c(OCCC[C@@H](N)C(=O)O)ccc(Cl)c3Cl)cnc12` [Example 24, (R)-2-amino-5-(2-((4-aminoimidazo[2,1-f][1,2,4]triazin-7-yl)methyl)-3,4-dichlorophenoxy) pentanoic acid], the IC50 in experiment [1] was 50 to 100 nM; in the experiment with H3K4me3 in MV4-11 cells it was above 3000 nM.

As to `NC(=O)[C@H](N)CCCOc1ccc(Cl)c(Cl)c1Cc1cnc2c(N)ncnn12` [Example 35, (R)-2-amino-5-(2-((4-aminoimidazo[2,1-f][1,2,4]triazin-7-yl)methyl)-3,4-dichlorophenoxy)pentanamide], the IC50 in experiment [1] is above 100 nM; in the experiment on H3K4me3 in MV4-11 cells it was above 3000 nM.

Regarding `Nc1ncnn2c(Cc3c(OCCC[C@@H](N)C(=O)NC4CC4)ccc(Cl)c3Cl)cnc12` [Example 36, (R)-2-amino-5-(2-((4-aminoimidazo[2,1-f][1,2,4]triazin-7-yl)methyl)-3,4-dichlorophenoxy)-N-cyclopropylpentanamide], the IC50 in experiment [1] was below 50 nM; in the experiment on H3K4me3 in MV4-11 cells it was above 3000 nM; in experiment [2], below 60 nM.

In the case of `Nc1ncnc2c(Cc3c(OCCC[C@@H](N)C(=O)NC4CC4)ccc(Cl)c3Cl)cnn12` [Example 37, (R)-2-amino-5-(2-((4-aminopyrazolo[1,5-a][1,3,5]triazin-8-yl)methyl)-3,4-dichlorophenoxy)-N-cyclopropylpentanamide], the IC50 in experiment [1] is 50 to 100 nM; in the experiment on H3K4me3 in MV4-11 cells, above 3000 nM; in experiment [2], above 100 nM.
